The record followed here is paper PMC11414077, “Novel thiazole-based cyanoacrylamide derivatives: DNA cleavage, DNA/BSA binding properties and their anticancer behaviour against colon and breast cancer cells” (BMC Chemistry, 2024).

One data set concerns MDA-MB-231 cells. Nature of the data set: MTT cell viability assay, MDA-MB-231. Type of data set: cell-based. The conditions noted are these: Homo sapiens; MDA-MB-231, dark conditions. As for the experimental part:
(§1) The cytotoxicity of 3b and 3c against MDA-MB-231 and HCT116 cell lines, with and without illumination, was assessed using the MTT test. Two human cancer cell lines, including MDA-MB-231 and HCT116 cell lines, were purchased from the National Research Centre, Dokki, Cairo, Egypt. Briefly, 96-well plates were seeded with cells (5 × 10^3 cells/well) and left overnight. The compounds dissolved in DMSO were then applied to the cells following the serial dilution procedure in the range of 0–100 µM. The cells were then incubated for an additional 20 h. Subsequently, the cells were exposed to UV light for 20 min at a distance of 10 cm. To study the effects of the illumination, a control plate was created under the same circumstances but without illumination. The two plates were incubated for a further 20 h. After that, PBS was used to wash the cells and MTT solution (0.5 mg/ml) was added. To dissolve the generated formazan crystals, the solution was replaced with 100 µl of DMSO per well after 4 h of incubation. An ELISA reader operating at 492 nm was used to measure the absorbance after 15 min of plate shaking. By relating the absorbance of treated and negative control cells, the relative cell viability was calculated. GraphPad Prism software was used to calculate the half inhibitory concentration (IC50). Doxorubicin (0–100 μM) was utilized as a positive cytotoxicity control in the usual dark environment, while the vehicle (DMSO, 0.1%) was used as a negative control.
A general note: Formazan colour is commonly taken as a measure of viable cells.

The target in data set [1] is T1, BSA (Bos taurus, UniProt P02769).
T1 construct: purchased BioBasic Inc. (Canada)
T1 sequence (P02769 25-607): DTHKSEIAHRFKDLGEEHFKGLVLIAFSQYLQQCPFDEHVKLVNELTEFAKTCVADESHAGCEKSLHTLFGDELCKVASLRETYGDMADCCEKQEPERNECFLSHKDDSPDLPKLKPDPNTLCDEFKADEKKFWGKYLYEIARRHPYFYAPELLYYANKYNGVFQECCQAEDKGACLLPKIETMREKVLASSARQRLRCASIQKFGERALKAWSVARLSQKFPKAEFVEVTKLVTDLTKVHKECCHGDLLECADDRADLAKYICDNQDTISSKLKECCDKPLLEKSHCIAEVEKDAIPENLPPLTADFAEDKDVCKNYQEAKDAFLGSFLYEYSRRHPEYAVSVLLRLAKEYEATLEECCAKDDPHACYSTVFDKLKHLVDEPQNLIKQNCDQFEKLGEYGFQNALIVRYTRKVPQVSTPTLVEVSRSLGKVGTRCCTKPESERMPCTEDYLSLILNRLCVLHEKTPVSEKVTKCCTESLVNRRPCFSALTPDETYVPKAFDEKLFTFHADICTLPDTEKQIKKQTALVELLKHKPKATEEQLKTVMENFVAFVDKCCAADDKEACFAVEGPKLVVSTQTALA
Kind of data set: Tryptophan quenching assay with BSA. Type of data set: binding, bovine. Conditions: for kq / n (binding site numbers) / Kb: BSA; for n (binding site numbers) / Kb: Scatchard method; for Kb / KSV: room temperature; for KSV: Stern–Volmer, BSA 15 µM, λex 289 nm. As for the experimental part:
BSA (15 µM) solution was prepared in Tris/HCl buffer solution (pH = 7.1) and mixed with serial concentrations of compounds 3b and 3c (0–40 µM), achieving 5% final concentration of DMSO. Following 3 min incubation after each addition, fluorescence quenching spectra were recorded from 300 to 450 nm using a spectrofluorometer with an excitation wavelength of 289 nm.
Fluorescence investigations could be used to conduct a specified analysis of whether synthetic molecules bind to biomolecules as BSA. It is widely perceived that predominantly tryptophan (Trp) is responsible for the inherited fluorescence among the other two amino acids [tyrosine (Tyr) and phenylalanine (Phe)] in the BSA [88]. The tryptophan emission spectrum is frequently altered because of protein conformational variation, subunit interactions, substrate binding, or denaturation. Reduced fluorescence emission intensity is observed for 3b and 3c, which may be due to disrupted BSA structure altering the tryptophan microenvironments. Moreover, the internalization of fluorophore residues into the protein's hydrophobic core is due to protein folding or related to the hydrophobic amino acid residues around Trp, such as Leu, Tyr, and phe. […] Also, a linear plot of F0/F against the concentration of 3b and 3c was used for computing the values of KSV (9.0 × 10^4 and 9.9 × 10^4 M^−1) and kq (9.0 × 10^12 and 9.9 × 10^12 M^−1 s^−1) for the titled compounds (3b and 3c, respectively). […] The negative values of ΔG also supported the UV–Vis results of free energy changes and implied the spontaneity of 3b/3c–BSA binding, where the interaction parameters were illustrated in Table 2.

A further data set relates to CT-DNA-EtBr. Nature of the data set: Ethidium bromide quenching (displacement) assay. In kind it is binding, calf. The conditions noted are these: for kq / KSV: CT-DNA-EtBr; for kq: τ0 10^−8 s; for reduction in fluorescence intensity: EtBr 20 µM, CT-DNA 100 µM, 3b 0–160 µM, 3c 0–80 µM; for KSV: Stern–Volmer, room temperature. As for the experimental part: EtBr is a conventional intercalator whose fluorescence intensity intensifies in response to CT-DNA interaction. Solution of CT-DNA-EtBr with final concentrations of EtBr (20 µM) and CT-DNA (100 µM) in Tris–HCl buffer solution (pH = 7.1) was prepared, then compounds were solubilized in DMSO, added to the prepared solution to attain a range of concentration (0–160 µM) and (0–80 µM) for 3b and 3c, respectively. Then, the mixtures were incubated 3 min after each addition and the emission spectra (540–710 nm) were recorded using an excitation wavelength of 520 nm.
The interaction mode between compound and CT-DNA can be discriminated through fluorescence spectroscopy with the EtBr–CT-DNA system. EtBr is a classic indicator of intercalation where an intense fluorescence signal is emitted from the EtBr-CT-DNA system through intercalation of EtBr between adjacent DNA base pairs with no obvious signal for unaccompanied EtBr. […] The Stern–Volmer equation was used for the study of the effect of quenchers on the CT-DNA-EtBr system. F0/F= 1+KsvQ= 1+kqτ0[Q] where F0 and F are fluorescence intensities in the absence and presence of the compound used for quenching, respectively; KSV is a linear Stern–Volmer quenching constant; [Q] is the concentration of the quenching compound and τ0 is the fluorescence lifetime of the fluorophore (10^−8 s) in absence of the compound responsible for quenching. KSV for 3b and 3c is computed from the linear regression plot of F0/F against [Q]. Also, the binding constant (Kb) and the number of binding sites (n) were determined by the Scatchard method.
log((F0-F)/F)=logKb+nlog[Q]
Kb has been assigned as the intercept and n as the slope in the linear plotting of log((F0–F)/F) versus log[Q]. The detailed results for 3b and 3c were computed and depicted in Table 1.

The target of data set [2] is T1, BSA. Kind of data set: BSA UV-Visible absorption spectrophotometric titration. Conditions: at 277 nm, BSA 15 μM, compound 0–40 μM. In kind it is binding, bovine. As to the method: BSA was dissolved in Tris/NaCl buffer (pH 7.1) to prepare the BSA stock solution, which was then kept at 4°C and utilized within a week after preparation. The concentration was evaluated by applying the equation C=A280nm/ε×b where C is the concentration of protein solution, A is the absorbance at wavelength 280 nm, b is the path length and ε is molar extinction coefficient of protein that equals 44,300 M^−1 cm^−1.
The interaction was evaluated through dilution of BSA to 15 μM in Tris/NaCl (pH 7.1) during the spectrophotometric titration. After that, the compounds dissolved in DMSO were added with a range of increasing concentration (0–40 μM), where the final DMSO percentage is 5%. UV–Vis absorption spectrum measurement for each concentration was assessed by Shimadzu UV-3101 PC NIR spectrophotometer after 3 min of each addition. The Kb for compounds 3b and 3c was calculated using equation [54]: 1/Aobs-A0=1/Ac-A0+1/KbAc-A0[compound] where A0, Aobs and Ac are absorbance of solution in the absence, various concentrations, and saturation of the compound at the characteristic peak, respectively. Where Kb is estimated from the plot of 1/Aobs-A0 versus 1/[Drug] .

The next data set relates to HCT116 cells. Nature of the data set: MTT cell viability assay, HCT116. In kind it is cell-based. Conditions: Homo sapiens, HCT-116; HCT116, absence of illumination (dark). As for the experimental part: as §1
In the next data set the test system is CT-DNA. Nature of the data set: CT-DNA UV-Visible absorption spectrophotometric titration. In kind it is binding, calf. Conditions: compound 25 μM, CT-DNA 0–60 μM; peak 423 nm (3b), 359 nm (3c). As for the experimental part:
CT-DNA stock solution was prepared by dissolving CT-DNA in Tris/NaCl buffer (pH 7.1). Then, it was stored at 4°C and was manipulated within 4 days of preparation. The concentration was estimated by applying the equation C=A260nm/ε×b where C is the concentration of DNA solution, A is the absorbance at wavelength 260 nm, b is the path length and ε is the molar extinction coefficient of DNA that equals 6600 M^−1 cm^−1. The purity also was calculated using the absorbance ratio at wavelength 260 and 280 respectively, which was 1.8 indicating free DNA from protein contamination. Stock solutions of compounds 3b and 3c were prepared by dissolving in DMSO.
The interaction between the selected compounds (3b and 3c) and CT-DNA was assessed through the spectrophotometric titration method. In brief, a fixed concentration of compounds (25 μM) was mixed with an accumulative addition of CT-DNA (0–60 μM) at room temperature with a constant DMSO percentage of 5%. After 5 min from each addition, the UV–Vis absorption spectrum (250–650 nm) was recorded. The hyper/hypochromic percentage change at the characteristic peak of 3b and 3c was assessed using the formula: H%=Afree-Abound/Abound×100 . […] Standard Gibbs free energy (ΔG°) was calculated using the equation ΔG° = − RTlnKb (where T is the temperature, 298 K; R is the universal gas constant, 8.314 J K^−1 mol^−1).

`N#CC(=Cc1cn(-c2ccccc2)nc1-c1cccs1)C(=O)Nc1nccs1` [Compound 3b, 2-Cyano-3-(1-phenyl-3-(thiophen-2-yl)-1H-pyrazol-4-yl)-N-(thiazol-2-yl)acrylamide] showed a melting point of 252 to 256 °C. In the data set on MDA-MB-231 cells, this compound came in with a 50% inhibitory concentration (IC50) of 91 µM. In addition, at BSA [1], the kq is 9e+12 M⁻¹ s⁻¹, the “n (binding site numbers)” value is listed as 1.3, the Kb worked out at 30 M⁻¹ and the KSV was determined as 90000 M⁻¹. Moreover, in the data set on CT-DNA-EtBr, the kq was 2.9e+11 M⁻¹ s⁻¹, the “reduction in fluorescence intensity” value is ~ 33.3% and the KSV amounted to 2900 M⁻¹. Besides, the hyperchromicity at BSA [2] is reported as ~ 52.2%. Also, the 50% inhibitory concentration (IC50) in the data set on HCT116 cells is 72 µM. Moreover, in the data set with CT-DNA, the hypochromism is ~ 14%.
On to `N#CC(=Cc1cn(-c2ccccc2)nc1-c1cccnc1)C(=O)Nc1nccs1` [Compound 3c, 2-Cyano-3-(1-phenyl-3-(pyridin-3-yl)-1H-pyrazol-4-yl)-N-(thiazol-2-yl)acrylamide], for which the melting point fell in the range of 250 to 252 °C. This compound also showed a half-inhibitory concentration (IC50) in the data set with MDA-MB-231 cells of 64 µM. Besides, at BSA [1], the kq came out at 9.9e+12 M⁻¹ s⁻¹, the “n (binding site numbers)” value stood at 1.3, the Kb was found to be 34 M⁻¹ and the KSV was determined as 99000 M⁻¹. For the same compound, in the data set with CT-DNA-EtBr, the kq is 5.6e+11 M⁻¹ s⁻¹, the “reduction in fluorescence intensity” value is ~ 30.7% and the KSV worked out at 5600 M⁻¹. Further, the hyperchromicity on BSA [2] was ~ 48.2%. This compound also had an IC50 in the data set on HCT116 cells of 82 µM. In addition, the hypochromism in the data set on CT-DNA is listed as ~ 40%.
`Cc1ccc(-c2nn(-c3ccccc3)cc2C=C(C#N)C(=O)Nc2nccs2)cc1` [Compound 3d, 2-Cyano-3-(1-phenyl-3-(p-tolyl)-1H-pyrazol-4-yl)-N-(thiazol-2-yl)acrylamide]: the melting point fell in the range of 255 to 257 °C.
`N#CC(=Cc1cn(-c2ccccc2)nc1-c1ccc(Cl)cc1)C(=O)Nc1nccs1` [Compound 3f, 3-(3-(4-Chlorophenyl)-1-phenyl-1H-pyrazol-4-yl)-2-cyano-N-(thiazol-2-yl)acrylamide] came in with a melting point of 270 to 272 °C.
Turning to `COc1cccc2c1C(=O)c1c(O)c3c(c(O)c1C2=O)C[C@@](O)(C(=O)CO)C[C@@H]3O[C@H]1C[C@H](N)[C@H](O)[C@H](C)O1` [doxorubicin, reference compound], the IC50 in the data set on MDA-MB-231 cells worked out at 64.8 µM; in the data set with HCT116 cells, 40 µM.

As a reminder, the IC50 is the midpoint of a concentration-inhibition curve. Broadly, the melting point is the temperature, or range, at which the solid turns liquid.
